Test results as given in patent US12240838B2, “Inhibiting agents for Bruton's tyrosine kinase” (BIOGEN MA INC., priority 2019, dated 2025).

What was measured:
BTK [1] = target: T1, BTK (Homo sapiens (Human), UniProt Q06187); assay: In Vitro PD Assay in Human Whole Blood (pBTK assay); type: cell-based; details: 37° C. for 30 min, 50% inhibition of ECL signal
How it was run: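 Phospho-BTK was measured by total-BTK capture and phosphotyrosine detection in lysates of human heparinized whole blood. Vehicle samples lysed with or without phosphatase inhibitors defined the high and low controls.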

BTK [2] = target: T1, BTK; assay: In Vitro BTK Kinase Assay: BTK-POLYGAT-LS ASSAY; type: biochemical; details: ATP 10 μM, polyGAT 100 nM, BTK 0.25 nM, 30 minutes
How it was run: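 BTK (0.25 nM final) with 10 μM ATP and 100 nM polyGAT in pH 7.5 Tris buffer with MgCl2, DTT, Triton X-100 and casein; compound titrated 4-fold. Reaction 30 min, stopped with EDTA. Phosphorylation detected by TR-FRET with Tb-PY20 antibody after 45 min at room temperature; IC50 reported.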

T1 sequence (Q06187 whole entry): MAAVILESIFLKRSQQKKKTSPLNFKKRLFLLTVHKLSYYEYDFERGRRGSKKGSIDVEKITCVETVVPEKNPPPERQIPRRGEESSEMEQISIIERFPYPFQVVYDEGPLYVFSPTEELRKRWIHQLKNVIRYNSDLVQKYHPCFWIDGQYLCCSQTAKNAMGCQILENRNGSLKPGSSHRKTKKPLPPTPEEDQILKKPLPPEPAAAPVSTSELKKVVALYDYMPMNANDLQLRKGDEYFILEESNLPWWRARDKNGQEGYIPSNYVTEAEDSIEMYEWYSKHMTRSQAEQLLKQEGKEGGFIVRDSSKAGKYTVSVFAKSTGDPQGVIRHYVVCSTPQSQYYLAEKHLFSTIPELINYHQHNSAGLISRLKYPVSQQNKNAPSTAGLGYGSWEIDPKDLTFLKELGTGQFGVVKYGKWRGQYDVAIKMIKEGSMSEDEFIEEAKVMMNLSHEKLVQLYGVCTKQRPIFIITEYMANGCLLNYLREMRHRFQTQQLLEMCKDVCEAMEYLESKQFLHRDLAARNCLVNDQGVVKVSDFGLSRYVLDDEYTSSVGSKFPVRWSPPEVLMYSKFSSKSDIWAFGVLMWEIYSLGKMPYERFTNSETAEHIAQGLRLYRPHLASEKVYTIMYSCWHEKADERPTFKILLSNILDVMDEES

| Compound | IC50 (BTK [1]) [nM] | IC50 (BTK [2]) [nM] |
| --- | --- | --- |
| C[C@@H](NC(=O)c1noc(C(C)(C)C)n1)c1ccc(-c2ccnc(NC(=O)C3CC3)c2)cc1C(F)(F)F [Compound 78, (R)-5-(tert-butyl)-N-(1-(4-(2-(cyclopropanecarboxamido)pyridin-4-yl)-2-(trifluoromethyl)phenyl)ethyl)-1,2,4-oxadiazole-3-carboxamide] | 100 to 500 | ≤ 1 |
| C[C@@H](NC(=O)c1nc(C(C)(C)C)no1)c1ccc(-c2ccnc(NC(=O)C3CC3)c2)cc1C(F)(F)F [Compound 79, (R)-3-(tert-butyl)-N-(1-(4-(2-(cyclopropanecarboxamido)pyridin-4-yl)-2-(trifluoromethyl)phenyl)ethyl)-1,2,4-oxadiazole-5-carboxamide] | 100 to 500 | ≤ 1 |
| CC(C)(C)c1noc(C(=O)NCc2ccc(-c3ccnc(NC(=O)C4CC4)c3)cc2OC(F)(F)F)n1 [Compound 80, 3-(tert-butyl)-N-(4-(2-(cyclopropanecarboxamido)pyridin-4-yl)-2-(trifluoromethoxy)benzyl)-1,2,4-oxadiazole-5-carboxamide] | 500 to 10000 | ≤ 1 |
| Cc1cc(-c2ccnc(NC(=O)C3CC3)c2)ccc1CNC(=O)c1cnc(C(C)(C)C)s1 [Compound 81, 2-(tert-butyl)-N-(4-(2-(cyclopropanecarboxamido)pyridin-4-yl)-2-methylbenzyl)thiazole-5-carboxamide] | 500 to 10000 | 1 to 10 |
| Cc1cc(-c2ccnc(NC(=O)C3(F)CC3)c2)ccc1CNC(=O)c1noc(C(C)(C)C)n1 [Compound 82, 5-(tert-butyl)-N-(4-(2-(1-fluorocyclopropane-1-carboxamido)pyridin-4-yl)-2-methylbenzyl)-1,2,4-oxadiazole-3-carboxamide] | 500 to 10000 | 1 to 10 |
| C[C@@H](NC(=O)c1noc(C(C)(C)C)n1)c1ccc(-c2ccnc(NC(=O)C3CC3)c2)cc1OC(F)(F)F [Compound 83, (R)-5-(tert-butyl)-N-(1-(4-(2-(cyclopropanecarboxamido)pyridin-4-yl)-2-(trifluoromethoxy)phenyl)ethyl)-1,2,4-oxadiazole-3-carboxamide] | 500 to 10000 | 1 to 10 |
| Cc1c(CNC(=O)c2noc(C(C)(C)C)n2)ccc(-c2ccnc(NC(=O)C3CC3)c2)c1Cl [Compound 84, 5-(tert-butyl)-N-(3-chloro-4-(2-(cyclopropanecarboxamido)pyridin-4-yl)-2-methylbenzyl)-1,2,4-oxadiazole-3-carboxamide] | 100 to 500 | ≤ 1 |
| Cc1cc(-c2ccnc(NC(=O)C3CC3)c2)ccc1CNC(=O)c1cn(C(C)(C)C)nn1 [Compound 89, 1-(tert-butyl)-N-(4-(2-(cyclopropanecarboxamido)pyridin-4-yl)-2-methylbenzyl)-1H-1,2,3-triazole-4-carboxamide] | 100 to 500 | 1 to 10 |
| Cc1cc(-c2ccnc(NC(=O)C3CC3)c2)ccc1CNC(=O)c1nnc(C(C)(C)C)o1 [Compound 90, 5-(tert-butyl)-N-(4-(2-(cyclopropanecarboxamido)pyridin-4-yl)-2-methylbenzyl)-1,3,4-oxadiazole-2-carboxamide] | 100 to 500 | 1 to 10 |
| C[C@@H](NC(=O)c1nc(C(C)(C)C)no1)c1ccc(-c2ccnc(NC(=O)C3CC3)c2)cc1Cl [Compound 91, (R)-3-(tert-butyl)-N-(1-(2-chloro-4-(2-(cyclopropanecarboxamido)pyridin-4-yl)phenyl)ethyl)-1,2,4-oxadiazole-5-carboxamide] | 100 to 500 | ≤ 1 |
| CC(C)(C)c1noc(C(=O)N[C@@H]2CCN(CC(F)(F)F)Cc3cc(-c4ccnc(NC(=O)C5CC5)c4)ccc32)n1 [Compound 92, (R)-3-(tert-butyl)-N-(8-(2-(cyclopropanecarboxamido)pyridin-4-yl)-2-(2,2,2-trifluoroethyl)-2,3,4,5-tetrahydro-1H-benzo[c]azepin-5-yl)-1,2,4-oxadiazole-5-carboxamide] | 100 to 500 | ≤ 1 |
| Cc1cc(-c2ccnc(NC(=O)C3CC3)c2)ccc1[C@@H](C)NC(=O)c1nc(C(C)(C)C)no1 [Compound 93, (R)-3-(tert-butyl)-N-(1-(4-(2-(cyclopropanecarboxamido)pyridin-4-yl)-2-methylphenyl)ethyl)-1,2,4-oxadiazole-5-carboxamide] | 100 to 500 | ≤ 1 |
| Cc1c(CNC(=O)c2nc(C(C)(C)C)no2)ccc(-c2ccnc(NC(=O)C3CC3)c2)c1F [Compound 94, 3-(tert-butyl)-N-(4-(2-(cyclopropanecarboxamido)pyridin-4-yl)-3-fluoro-2-methylbenzyl)-1,2,4-oxadiazole-5-carboxamide] | ≤ 100 | ≤ 1 |
| Cc1cc(-c2ccnc(NC(=O)C3CC3)c2)ccc1CNC(=O)c1ncc(C(C)(C)C)o1 [Compound 98, 5-(tert-butyl)-N-(4-(2-(cyclopropanecarboxamido)pyridin-4-yl)-2-methylbenzyl)oxazole-2-carboxamide] | 500 to 10000 | 1 to 10 |
| Cc1cc(-c2ccnc(NC(=O)C3CC3)c2)ccc1CNC(=O)c1ccn(C(C)(C)C)n1 [Compound 99, 1-(tert-butyl)-N-(4-(2-(cyclopropanecarboxamido)pyridin-4-yl)-2-methylbenzyl)-1H-pyrazole-3-carboxamide] | 500 to 10000 | 1 to 10 |
| Cc1c(-c2ccnc(NC(=O)C3CC3)c2)ccc(CNC(=O)c2nc(C(C)(C)C)no2)c1F [Compound 100, 3-(tert-butyl)-N-(4-(2-(cyclopropanecarboxamido)pyridin-4-yl)-2-fluoro-3-methylbenzyl)-1,2,4-oxadiazole-5-carboxamide] | 500 to 10000 | ≤ 1 |
| Cc1c(-c2ccnc(NC(=O)C3CC3)c2)ccc(CNC(=O)c2noc(C(C)(C)C)n2)c1F [Compound 101, 5-(tert-butyl)-N-(4-(2-(cyclopropanecarboxamido)pyridin-4-yl)-2-fluoro-3-methylbenzyl)-1,2,4-oxadiazole-3-carboxamide] | 500 to 10000 | ≤ 1 |
| Cc1cc(CNC(=O)c2noc(C(C)(C)C)n2)c(F)cc1-c1ccnc(NC(=O)C2CC2)c1 [Compound 102, 5-(tert-butyl)-N-(4-(2-(cyclopropanecarboxamido)pyridin-4-yl)-2-fluoro-5-methylbenzyl)-1,2,4-oxadiazole-3-carboxamide] | 500 to 10000 | 10 to 1000 |
| Cc1cc(-c2cc(NC(=O)C3CC3)ncc2F)c(F)cc1CNC(=O)c1noc(C(C)(C)C)n1 [Compound 103, 5-(tert-butyl)-N-(4-(2-(cyclopropanecarboxamido)5-fluoropyridin-4-yl)-5-fluoro-2-methylbenzyl)-1,2,4-oxadiazole-3-carboxamide] | 100 to 500 | ≤ 1 |
| CC(C)(C)c1nc(C(=O)NCc2cc(F)c(-c3ccnc(NC(=O)C4CC4)c3)cc2Cl)no1 [Compound 104, 5-(tert-butyl)-N-(2-chloro-4-(2-(cyclopropanecarboxamido)pyridin-4-yl)-5-fluorobenzyl)-1,2,4-oxadiazole-3-carboxamide] | 100 to 500 | ≤ 1 |
| Cc1cc(-c2cc(NC(=O)C3CC3)ncc2F)ccc1CNC(=O)c1noc(C(C)(C)C)n1 [Compound 106, 5-(tert-butyl)-N-(4-(2-(cyclopropanecarboxamido)5-fluoropyridin-4-yl)-2-methylbenzyl)-1,2,4-oxadiazole-3-carboxamide] | 500 to 10000 | ≤ 1 |
| CC(C)(C)c1nc(C(=O)NCc2ccc(-c3ccnc(NC(=O)C4CC4)c3)cc2OC(F)(F)F)no1 [Compound 107, 5-(tert-butyl)-N-(4-(2-(cyclopropanecarboxamido)pyridin-4-yl)-2-(trifluoromethoxy)benzyl)-1,2,4-oxadiazole-3-carboxamide] | ≤ 100 | ≤ 1 |
